Reference: patent US9856220B2 (AbbVie Deutschland GmbH & Co. KG, priority 2011, dated 2018)

Legend:
[1] = Determination of the microsomal half-life / microsomal clearance, rat liver microsomes; assay type: in vitro ADME; settings: 0.5 μM test substance, 0.25 mg of microsomal protein/ml, pH 7.4, 37° C.
Procedure: (§1) b) Determination of the Microsomal Half-Life:
(§2) The metabolic stability of the compounds of the invention was determined in the following assay.
(§3) The test substances were incubated in a concentration of 0.5 μM as follows:
(§4) 0.5 μM test substance are preincubated together with liver microsomes from different species (from rat, human or other species) (0.25 mg of microsomal protein/ml) in 0.05 M potassium phosphate buffer of pH 7.4 in microtiter plates at 37° C. for 5 min. The reaction is started by adding NADPH (1 mg/mL). After 0, 5, 10, 15, 20 and 30 min, 50 μl aliquots are removed, and the reaction is immediately stopped and cooled with the same volume of acetonitrile. The samples are frozen until analyzed. The remaining concentration of undegraded test substance is determined by MSMS. The half-life (T½) is determined from the gradient of the signal of test substance/unit time plot, it being possible to calculate the half-life of the test substance, assuming first order kinetics, from the decrease in the concentration of the compound with time. The microsomal clearance (mCl) is calculated from mCl=ln 2/T½/(content of microsomal protein in mg/ml)×1000 [ml/min/mg]

[2] = Determination of the microsomal half-life / microsomal clearance, human liver microsomes; assay type: in vitro ADME; settings: 0.5 μM test substance, 0.25 mg of microsomal protein/ml, pH 7.4, 37° C.
Procedure: as §1, §2, §3, §4

PDE10A = PDE10A (Homo sapiens (Human), UniProt Q9Y233); assay: Measurement of PDE activity (recombinant PDE, cAMP HTRF); assay type: biochemical; settings: 20 nM cyclic nucleotide substrate, 60 minutes at 29 C
Method in brief: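 Recombinant human PDE10A in 20 mM Tris-HCl pH 7.5, 10 mM MgCl2, 0.1% BSA with 20 nM cyclic nucleotide substrate; reaction 60 min at 29 C after compound preincubation with enzyme. Residual cAMP detected by HTRF (cAMP-d2/anti-cAMP cryptate); IC50 from inhibitor concentration versus PDE activity.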

rats [3] = settings: cited from earlier work
rats [4] = settings: cited from earlier work; remark: listed apart in the source
rats [5] = settings: rat, in vivo; cited from earlier work

PDE10A, sequence (Q9Y233 whole entry, species assumed): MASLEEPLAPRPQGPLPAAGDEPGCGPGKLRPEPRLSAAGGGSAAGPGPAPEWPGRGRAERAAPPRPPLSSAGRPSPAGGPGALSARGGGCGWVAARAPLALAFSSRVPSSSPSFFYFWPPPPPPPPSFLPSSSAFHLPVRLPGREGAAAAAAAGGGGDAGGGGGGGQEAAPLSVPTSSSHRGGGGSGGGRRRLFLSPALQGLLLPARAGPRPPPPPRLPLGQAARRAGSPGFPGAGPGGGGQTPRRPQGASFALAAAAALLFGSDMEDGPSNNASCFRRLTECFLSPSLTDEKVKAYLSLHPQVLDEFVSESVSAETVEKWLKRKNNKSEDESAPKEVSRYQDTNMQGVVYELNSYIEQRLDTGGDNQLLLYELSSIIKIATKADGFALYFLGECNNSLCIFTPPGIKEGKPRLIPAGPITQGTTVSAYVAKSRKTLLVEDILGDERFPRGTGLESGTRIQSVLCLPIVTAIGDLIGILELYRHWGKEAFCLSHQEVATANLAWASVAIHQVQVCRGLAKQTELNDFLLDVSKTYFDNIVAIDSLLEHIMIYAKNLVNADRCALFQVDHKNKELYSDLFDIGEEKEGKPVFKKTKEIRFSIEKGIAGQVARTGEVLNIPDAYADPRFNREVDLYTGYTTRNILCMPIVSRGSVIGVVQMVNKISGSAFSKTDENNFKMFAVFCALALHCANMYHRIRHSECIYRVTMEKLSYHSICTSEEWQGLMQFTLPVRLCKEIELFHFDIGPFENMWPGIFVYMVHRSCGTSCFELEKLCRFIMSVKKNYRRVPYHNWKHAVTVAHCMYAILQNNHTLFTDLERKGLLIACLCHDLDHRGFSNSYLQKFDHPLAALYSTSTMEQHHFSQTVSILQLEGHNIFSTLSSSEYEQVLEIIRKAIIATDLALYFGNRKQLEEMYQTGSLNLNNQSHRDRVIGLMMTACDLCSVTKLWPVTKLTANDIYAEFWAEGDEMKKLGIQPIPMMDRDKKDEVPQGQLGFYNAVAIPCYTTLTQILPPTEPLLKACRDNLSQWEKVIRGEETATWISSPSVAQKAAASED

SMILES	Rat mCl [1]	Human mCl [2]	IC50 (PDE10A)	catalepsy on its own (rats [3]; compound alone)	cataleptic effect of the D2 receptor antagonist haloperidol (rats [3]; with haloperidol)	hyperactivity induced by PCP (rats [4])	reduction of amphetamine-induced hyperactivity (rats [5])
CCC(CC)n1cc(C(=O)NCc2cccnc2)c2cc(OC)c(OC)cc2c1=O [Example 236, 6,7-Dimethoxy-1-oxo-2-(pentan-3-yl)-N-(pyridin-3-ylmethyl)-1,2-dihydroisoquinoline-4-carboxamide]	++ (<100 μl min^−1 mg^−1)	+ (100-220 μl min^−1 mg^−1)	100 to 200 nM	–	–	–	–
CCC(CC)n1cc(C(=O)NCc2c(C)noc2C)c2cc(OC)c(OC)cc2c1=O [Example 238, N-((3,5-Dimethylisoxazol-4-yl)methyl)-6,7-dimethoxy-1-oxo-2-(pentan-3-yl)-1,2-dihydroisoquinoline-4-carboxamide]	+ (100-220 μl min^−1 mg^−1)	++ (<100 μl min^−1 mg^−1)	100 to 200 nM	–	–	–	–
CCC(CC)n1cc(C(=O)N[C@@H](C)c2ccc(F)cc2)c2cc(OC)c(OC)cc2c1=O [Example 246, (S)—N-(1-(4-fluorophenyl)ethyl)-6,7-dimethoxy-1-oxo-2-(pentan-3-yl)-1,2-dihydroisoquinoline-4-carboxamide]	+ (100-220 μl min^−1 mg^−1)	∘ (>220 μl min^−1 mg^−1)	100 to 200 nM	–	–	–	–
CCC(CC)n1cc(C(=O)NCc2ccc(C)o2)c2cc(OC)c(OC)cc2c1=O [Example 251, 6,7-Dimethoxy-N-((5-methylfuran-2-yl)methyl)-1-oxo-2-(pentan-3-yl)-1,2-dihydroisoquinoline-4-carboxamide]	∘ (>220 μl min^−1 mg^−1)	+ (100-220 μl min^−1 mg^−1)	100 to 200 nM	–	–	–	–
CCC(CC)n1cc(C(=O)NC2CCc3ccc(OC)cc32)c2cc(OC)c(OC)cc2c1=O (stereo not shown) [Example 256, 6,7-Dimethoxy-N-(6-methoxy-2,3-dihydro-1H-inden-1-yl)-1-oxo-2-(pentan-3-yl)-1,2-dihydroisoquinoline-4-carboxamide]	+ (100-220 μl min^−1 mg^−1)	∘ (>220 μl min^−1 mg^−1)	< 100 nM	–	–	–	–
CCC(CC)n1cc(C(=O)NCc2ccccn2)c2cc(OC)c(OC)cc2c1=O [Example 263, 6,7-Dimethoxy-1-oxo-2-(pentan-3-yl)-N-(pyridin-2-ylmethyl)-1,2-dihydroisoquinoline-4-carboxamide]	++ (<100 μl min^−1 mg^−1)	++ (<100 μl min^−1 mg^−1)	100 to 200 nM	–	–	–	–
CCc1ccc(CNC(=O)c2cn(CC)c(=O)c3cc(OC)c(OC)cc23)cc1 [Example 313, 2-Ethyl-N-[(4-ethylphenyl)methyl]-6,7-dimethoxy-1-oxo-isoquinoline-4-carboxamide]	++ (<100 μl min^−1 mg^−1)	++ (<100 μl min^−1 mg^−1)	200 to 500 nM	–	–	–	–
CCn1cc(C(=O)NCc2csc(C)n2)c2cc(OC)c(OC)cc2c1=O [Example 316, 2-Ethyl-6,7-dimethoxy-N-[(2-methylthiazol-4-yl)methyl]-1-oxo-isoquinoline-4-carboxamide]	++ (<100 μl min^−1 mg^−1)	++ (<100 μl min^−1 mg^−1)	200 to 500 nM	–	–	–	–
CCn1cc(C(=O)NCc2cc(C)cs2)c2cc(OC)c(OC)cc2c1=O [Example 317, 2-Ethyl-6,7-dimethoxy-N-[(4-methyl-2-thienyl)methyl]-1-oxo-isoquinoline-4-carboxamide]	+ (100-220 μl min^−1 mg^−1)	++ (<100 μl min^−1 mg^−1)	100 to 200 nM	–	–	–	–
CCn1cc(C(=O)NCc2ccc(C3CC3)cc2)c2cc(OC)c(OC)cc2c1=O [Example 318, N-[(4-Cyclopropylphenyl)methyl]-2-ethyl-6,7-dimethoxy-1-oxo-isoquinoline-4-carboxamide]	++ (<100 μl min^−1 mg^−1)	++ (<100 μl min^−1 mg^−1)	200 to 500 nM	–	–	–	–
COc1ccc(Cc2nccc3cc(OC)c(OC)cc23)cc1OC [Papaverine, papaverine]	–	–	–	did not cause catalepsy on its own	potentiated the cataleptic effect	reduced hyperactivity	insignificant

Continued, in another order:

Rat mCl [1]	Human mCl [2]	IC50 (PDE10A)	SMILES	catalepsy on its own (rats [3]; compound alone)	cataleptic effect of the D2 receptor antagonist haloperidol (rats [3]; with haloperidol)	hyperactivity induced by PCP (rats [4])	reduction of amphetamine-induced hyperactivity (rats [5])
++ (<100 μl min^−1 mg^−1)	++ (<100 μl min^−1 mg^−1)	100 to 200 nM	CCC(CC)n1cc(C(=O)NCc2nccs2)c2cc(OC)c(OC)cc2c1=O [Example 228, 2-(1-Ethyl-propyl)-6,7-dimethoxy-1-oxo-1,2-dihydro-isoquinoline-4-carboxylic acid (thiazol-2-ylmethyl)-amide]	–	–	–	–
+ (100-220 μl min^−1 mg^−1)	+ (100-220 μl min^−1 mg^−1)	100 to 200 nM	CCC(CC)n1cc(C(=O)NCc2ncc(C)s2)c2cc(OC)c(OC)cc2c1=O [Example 239, 6,7-Dimethoxy-N-((5-methylthiazol-2-yl)methyl)-1-oxo-2-(pentan-3-yl)-1,2-dihydroisoquinoline-4-carboxamide]	–	–	–	–
+ (100-220 μl min^−1 mg^−1)	++ (<100 μl min^−1 mg^−1)	100 to 200 nM	CCC(CC)n1cc(C(=O)NCc2cc(C)no2)c2cc(OC)c(OC)cc2c1=O [Example 241, 6,7-Dimethoxy-N-((3-methylisoxazol-5-yl)methyl)-1-oxo-2-(pentan-3-yl)-1,2-dihydroisoquinoline-4-carboxamide]	–	–	–	–
++ (<100 μl min^−1 mg^−1)	++ (<100 μl min^−1 mg^−1)	200 to 500 nM	CCC(CC)n1cc(C(=O)NCc2cc(C)on2)c2cc(OC)c(OC)cc2c1=O [Example 244, 6,7-Dimethoxy-N-((5-methylisoxazol-3-yl)methyl)-1-oxo-2-(pentan-3-yl)-1,2-dihydroisoquinoline-4-carboxamide]	–	–	–	–
++ (<100 μl min^−1 mg^−1)	+ (100-220 μl min^−1 mg^−1)	100 to 200 nM	CCC(CC)n1cc(C(=O)NCc2nc(C)cs2)c2cc(OC)c(OC)cc2c1=O [Example 247, 6,7-Dimethoxy-N-((4-methylthiazol-2-yl)methyl)-1-oxo-2-(pentan-3-yl)-1,2-dihydroisoquinoline-4-carboxamide]	–	–	–	–
++ (<100 μl min^−1 mg^−1)	+ (100-220 μl min^−1 mg^−1)	100 to 200 nM	CCC(CC)n1cc(C(=O)NCc2csc(C)n2)c2cc(OC)c(OC)cc2c1=O [Example 248, 6,7-Dimethoxy-N-((2-methylthiazol-4-yl)methyl)-1-oxo-2-(pentan-3-yl)-1,2-dihydroisoquinoline-4-carboxamide]	–	–	–	–
∘ (>220 μl min^−1 mg^−1)	+ (100-220 μl min^−1 mg^−1)	100 to 200 nM	CCC(CC)n1cc(C(=O)NCc2occc2C)c2cc(OC)c(OC)cc2c1=O [Example 267, 6,7-Dimethoxy-N-((3-methylfuran-2-yl)methyl)-1-oxo-2-(pentan-3-yl)-1,2-dihydroisoquinoline-4-carboxamide]	–	–	–	–
